# Values quoted from earlier work, collected in publication PMC4415995 (Advances in Therapy, 2015).
# Test system: patients with T2DM
# Conditions: cited from earlier work
row,Compound,maximal UGE [g]
1,Cc1ccc([C@@H]2O[C@H](CO)[C@@H](O)[C@H](O)[C@H]2O)cc1Cc1ccc(-c2ccc(F)cc2)s1 [canagliflozin],85 to 100
2,CCOc1ccc(Cc2cc([C@@H]3O[C@H](CO)[C@@H](O)[C@H](O)[C@H]3O)ccc2Cl)cc1 [dapagliflozin],85 to 100
3,OC[C@H]1O[C@@H](c2ccc(Cl)c(Cc3ccc(O[C@H]4CCOC4)cc3)c2)[C@H](O)[C@@H](O)[C@@H]1O [empagliflozin],85 to 100
4,OC[C@H]1O[C@@H](c2ccc(F)c(Cc3cc4ccccc4s3)c2)[C@H](O)[C@@H](O)[C@@H]1O [ipragliflozin],85 to 100
